The subject of series [1] is platelets of guinea-pig. The series can be described thus: Inhibition of the platelet aggregation induced by U46619 (BORN test), guinea-pig platelets. The format is cell-based. To be noted: read-out: PLATELET AGGREGATION GUINEA-PIG IC 50. In a few lines: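 Guinea-pig platelet aggregation at threshold level triggered by U46619, the stable TXA2 analogue. IC50 taken as the concentration inhibiting this aggregation by 50%.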

Series [2] concerns rat aorta. Kind of series: Inhibition of the U46619 induced rat aorta vasoconstriction. To be noted: contraction by U46619 (142 nM), rat thoracic aorta, 37° C.; read-out: VASOCONSTRICTION RAT AORTA IC 50. The format is cell-based. In a few lines:
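Spiral strips of thoracic aorta from ~300 g male rats in oxygenated Krebs-Henseleit at 37° C., isotonic recording. Contraction induced by U46619 142 nM; compound added 10 mn after agonist and inhibition read after 15 mn. IC50 from at least 3 aortas.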

The nature of series [3]: Lethal dose 50 on the rat by intravenous injection. To be noted: in vivo. As to the method:
The compounds of this invention are characterized by their absence of toxicity. By way of illustration, for the compound described in example 20, the lethal dose 50 determined on the rat, by intravenous injection is higher than 150 mg/kg.

On to `O=C(O)Cc1ccc(CC2(CNS(=O)(=O)c3ccc(Cl)cc3)CCCC2)cc1` [Example 20, Sodium 4-[[1-[[[(4-chlorophenyl)sulfonyl]amino]methyl]cyclopentyl]methyl]benzeneacetate], for which the IC50 in series [1] turned out to be 0.28 µM; in series [2] it was 0.07 µM. Besides, in series [3], the LD50 was above 150 mg/kg.

Values taken from US5387709A, “Substituted sulfonamides, process of preparation and medicines containing same” (Lipha Lyonnaise Industrielle Pharmaceutique, priority 1990, dated 1995).
